According to US11326183B2, “VCN enhancer compositions and methods of using the same” (priority 2016, dated 2022):
Entries after “also recorded” stand apart in the source; their conditions may differ.

Columns and labels:
hCD34+ cells [1] = test: VCN of pooled colonies after 14 day MethoCult culture, staurosporine and/or PGE2; format: cell-based, human; details: for VCN compared to controls or other treatments, in words: mean VCN
Method: (§1) Washed cells were resuspended in 200 μL SCGM and then transferred to 3 mL aliquots of cytokine-supplemented methylcellulose (for example, Methocult M4434 Classic). 1.1 mL was then transferred to parallel 35-mm tissue culture dishes using a blunt 16-gauge needle. Dishes were maintained in a standard humidified tissue culture incubator for 12-16 days and colonies were scored for size, morphology, and cellular composition. Individual colonies were then picked for subsequent VCN analysis or the contents of an entire 35-mm dish were pooled and then subject to VCN analysis.
Cells were then transduced with LVV and cultured in the presence of protamine sulfate (standard), PGE2 or vehicle. After transduction, cells were washed and cultured in MethoCult for 14 days.
After a 14 day MethoCult culture, pooled colonies were collected and analyzed for VCN. Mean VCN data is shown. […] FIG. 8.

[2] = system: transplanted hCD34+ cells; test: Engraftment and differentiation of transplanted hCD34+ cells in NSG mice (flow cytometry of BM); format: in vivo; details: BM four months post-transplant
Text: (§2) HSCs transduced with lentivirus were transplanted into NOD/SCID Gamma (NSG) mice to assess the effect of candidate compounds on viral transduction of human long-term hematopoietic stem cells. Transduced cells were washed and resuspended in phosphate-buffered saline (PBS) and transplanted into the tail vein of sub-myeloablated adult NSG mice, with minimal residual toxicity. Mice were housed in a pathogen-free environment per standard IACUC animal care guidelines. At 4 months post-transplant bone marrow (BM) was harvested from both femurs and analyzed for both VCN and engraftment of human cells by staining with an anti-hCD45 antibody (BD #561864) followed by flow cytometry analysis.
Cells were stained with an antibody cocktail recognizing various cell surface markers (CD45, CD33, CD3, CD19) and analyzed via flow cytometry. […] FIG. 5B.

[3] = system: bulk hCD34+ cells and CD34+CD38LoCD90+CD45RA- phenotypic stem cells; test: Single-cell PCR assay of transduction efficiency in bulk and CD34+CD38LoCD90+CD45RA- cells; format: cell-based, human; details: 400 nM or 800 nM staurosporine 2 hours
Method: (§3) Washed cells were resuspended in 2 mL Stem Cell Growth Medium (SCGM)+cytokines and transferred to a standard 12-well non-adherent tissue culture plate. Cells were maintained for an additional 6 days in a standard humidified tissue culture incubator (5% CO2) and then subjected to Vector Copy Number (VCN) analysis or single-cell nested PCR to determine transduction efficiency. Both VCN and the single-cell nested PCR assay were performed with qPCR using primers and probes specific to both the vector and an endogenous control gene. VCN was determined by dividing the amount of vector signal by the amount of the endogenous control gene. For the single-cell nested PCR assay, wells that contained a cell positive for the endogenous control gene and wells that contained a marked cell positive for both the vector and the endogenous control gene were enumerated, and the proportion of marked cells, or transduction efficiency, was calculated.
Thawed hCD34+ cells were stained with antibodies against cell surface markers for phenotypic HSCs (CD34^+CD38^LoCD90^+CD45^RA− cells) and then sorted using a Sony Cell Sorter. […] After culture, the cells were then single-cell sorted into 96 well plates and analyzed via the single-cell PCR assay to assess transduction efficiency, the percent lentiviral vector positive cells. […]

[4] = system: long-term NSG repopulating cells; test: VCN of bone marrow from NSG mice 4 months post-transplant of transduced hCD34+ cells; format: in vivo
Text: as §2
(§4) Following transduction, cells were washed and injected into busulfan-treated NSG mice. Aliquots of the drug product were retained for in vitro analysis. […] FIG. 4A. […] FIG. 4A. After 4 months in vivo, NSG mice were sacrificed and BM was collected and analyzed for VCN of the engrafted hCD34+ cells. There was an overall decrease in mean VCNs across all groups in vivo as compared to the drug product VCNs, indicating higher transduction of short-term progenitors rather than long-term stem cells. FIG. 4B.

hCD34+ cells [5] = test: Vector copy number (VCN) analysis of hCD34+ cells transduced with LVV after staurosporine treatment; format: cell-based, human
Method: as §3, §1
Cells transduced for 2 hours were then subjected to staining and flow analysis for the BLAM assay to quantify viral entry. […] FIG. 1A. […] FIGS. 1B and 1C.
These seven cell lots had been prospectively classified as low, medium, or high transducing cell lots. A low transducing cell lot is defined here as having a mean VCN <0.5 in vehicle-treated transductions, a medium transducing cell lot is defined here as having a mean 0.5<VCN<1, and a high transducing cell lot is defined here as having a mean VCN>1. […] This property of leveling average VCN among cell lots with different transducibility could aid in controlling variability between cell lots and normalizing drug product VCNs.
as §4

hCD34+ grafts = test: Non-restrictive insertion site analysis (polyclonality)
Text: Identified insertion sites were mapped within gene regions to examine the lentiviral integration profile. […] Insertion sites were also quantified as the percent of total reads. The top 10 clones are shown for each treatment.
Insertion sites were pooled for each group and quantified as the percent of total reads. The top 10 clones are shown for each treatment.

hCD34+ cells [6] = test: Transgene (LNGFR) expression by flow cytometry; format: cell-based, human; details: 200 nM staurosporine 2 hours, 24 hour transduction
hCD34+ cells [7] = test: BlaM (BLAM) assay for assessment of viral entry; format: cell-based, human
Method: Cells were transduced for 2 hours in the presence of F108, PGE2, and a virus encoding a β-lactamase-Vpr fusion protein. Following transduction, cells were washed and incubated with a fluorescent β-lactamase substrate for 30-60 minutes. β-lactamase cleavage was analyzed by flow cytometry: uncleaved substrate is GFP^+, and cleavage of the fluorescent β-lactamase results in a Pacific Blue^+ signal. β-lactamase cleavage indicates lentivirus entry into the cell. See also, Cavrois et al. Nature Biotechnology. 2002.
Cells transduced for 2 hours were then subjected to staining and flow analysis for the BLAM assay to quantify viral entry. […]. FIGS. 1B and 1C.

hCD34+ cells [8] = test: Methylcellulose assay for CFC formation (stem cell potential); format: cell-based, human
Method: as §1
For the 2 hour incubation, cells were subsequently washed and cultured in transduction media for the remaining 24 hours. Following the cultures, cells were plated in methylcellulose for CFC formation. […] FIG. 2B. […] FIG. 2A.

CCCCC[C@H](O)/C=C/[C@H]1[C@H](O)CC(=O)[C@@H]1C/C=C\CCCC(=O)O [PGE2, prostaglandin E2]
VCN compared to controls or other treatments, in words (hCD34+ cells [1]): increased VCN compared to controls

CN[C@@H]1C[C@H]2O[C@@](C)([C@@H]1OC)n1c3ccccc3c3c4c(c5c6ccccc6n2c5c31)C(=O)NC4 [staurosporine, Staurosporine]
effect of staurosporine treatment on engraftment ([2]; 400 nM or 800 nM): does not affect engraftment; also recorded: no statistically significant effect | proportion of myeloid (CD33+) or lymphoid (CD3+ or CD19+) cells / differentiation capabilities ([2]; 400 nM or 800 nM): is maintained; also recorded: no difference | level of engraftment of hCD34+ cells ([2]; all groups (vehicle, 400 nM, 800 nM staurosporine)): 30-40% | transduction efficiency (percent lentiviral vector positive cells) versus standard transduction [3]: increased transduction efficiency compared to standard transduction conditions; also recorded: higher than the transduction efficiency of the cells transduced using the standard transduction protocol | VCN compared to controls or other treatments, in words (hCD34+ cells [1]): increased VCN compared to controls; also recorded: outperforms PGE2 addition | fold increase in VCN (hCD34+ cells [1]; staurosporine two hours before transduction): 3 fold | fold improvement in mean in vivo VCN of BM relative to vehicle ([4]; 400 nM staurosporine prior to transduction): 3 fold | fold improvement in mean in vivo VCN of BM relative to vehicle ([4]; 800 nM staurosporine prior to transduction): 4 fold | fold increase in (mean) VCN versus control (hCD34+ cells [5]; 200 nM staurosporine 2 hours, washed, 24 hour transduction): 2 fold | mean VCN of the drug product, in words (hCD34+ cells [5]; 400 nM staurosporine 2 hours): did not significantly improve the mean VCN | mean VCN of the drug product, in words (hCD34+ cells [5]; 800 nM staurosporine): VCN enhancement | fold improvement in mean VCN of the drug product (pooled colonies) versus vehicle (hCD34+ cells [5]; 800 nM staurosporine 2 hours): approximately 2 fold | fold increase in average VCN (hCD34+ cells [5]; 800 nM staurosporine 2 hours, high transducing cell lots (mean VCN>1)): 1.2 fold | fold increase in average VCN (hCD34+ cells [5]; 800 nM staurosporine 2 hours, low transducing cell lots (mean VCN <0.5)): 2.3 fold | fold increase in average VCN (hCD34+ cells [5]; 800 nM staurosporine 2 hours, medium transducing cell lots (0.5<VCN<1)): 1.5 fold | effect of increasing staurosporine concentration on VCN enhancement (hCD34+ cells [5]; 200, 400, 800 nM, high transducing cell lots): plateaus | effect of increasing staurosporine concentration on mean VCN (hCD34+ cells [5]; 200, 400, 800 nM, low and medium transducing cell lots): trend for increasing mean VCN | clonality of engrafted cells (insertion site profile) (hCD34+ grafts; BM four months post-transplant, top 10 clones): polyclonal insertion site profile similar to vehicle treated cells | lentiviral integration profile of transduced cells (hCD34+ grafts; pre-transplant drug product, insertion sites mapped within gene regions): did not appear to skew | clonality of pre-transplantation samples (hCD34+ grafts; pre-transplant drug product, top 10 clones as percent of total reads): polyclonality | fold increase in transgene expression (LNGFR) (hCD34+ cells [6]): 1.5 fold | increase in the amount of cells containing LVV compared to vehicle-treated controls (hCD34+ cells [7]; 200 nM staurosporine 2 hours, washed, 2 hour transduction): ~50% | percentage of cells containing vector by BLAM assay, fold higher than controls (hCD34+ cells [7]; staurosporine-treated hCD34+ cells, two MOIs): 1.5 fold | colony formation ability (hCD34+ cells [8]; 2 hour exposure, 200 nM, 400 nM or 800 nM): retain colony formation ability and do not significantly differ from control-treated cells; also recorded: did not affect the ability of the hCD34^+ cells to form colonies | colony-forming potential (hCD34+ cells [8]; 24 hour exposure, 800 nM): few hCD34^+ cells that retain colony-forming potential | decrease in CFC formation (hCD34+ cells [8]; 24 hour exposure, lower doses (200 nM, 400 nM)): > 50% | reduction in CFC formation (hCD34+ cells [8]; 24 hours exposure, 3 different concentrations of staurosporine): > 50%
